Measured values published in patent publication US8586599B2, “Polymorphic forms of 6-(1-methyl-1H-pyrazol-4-yl)-2-{3-[5-(2-morpholin-4-yl-ethoxy)-pyrimidin-2-yl]-benzyl}-2H-pyridazin-3-one dihydrogenphosphate and processes of manufacturing thereof” (Merck Patent GmbH, priority 2008, dated 2013).
≈ marks a conversion by molar mass, not a printed value.

How the values were obtained:
[1] = Competitive slurry conversion of crystalline modifications A1 and NF3 in organic solvents (Example 10); format: physicochemical; details: 25° C. and 50° C., in words
Protocol: PTFE-coated stirring rods were inserted into the dispersions prior to sealing the vials. Dispersions were agitated in closed vials for 5 days, using a magnetic stirrer, at 25° C. and 50° C., respectively. Solid-state residues were filtered, and analyzed by XRD to monitor morphic form after solvent slurrying.

[2] = Water Vapour Sorption Isotherm (25° C.); format: physicochemical; details: for Relative humidity range with small water uptake levels upon adsorption / Relative humidity above which pronounced water uptake levels are observed / Water uptake levels at elevated relative humidity (hydrate formation) / Relative humidity above which re-conversion to the hydrate form occurs upon adsorption / Relative humidity below which hydrate water is lost: 25° C.; for Relative humidity below which hydrate water is lost: desorption
Excerpt: The crystalline modifications of the present invention can be characterized according to standard methods which can be found e.g. in Rolf Hilfiker, ‘Polymorphism in the Pharmaceutical Industry’, Wiley-VCH, Weinheim 2006, and references therein, e.g. X-Ray diffraction (XRD; chapter 6), IR and Raman spectroscopy (chapter 5), Differential Scanning Calorimetry (DSC) and Thermogravimetric Analysis (TGA) (chapter 3), Water Vapour Sorption Studies (chapter 9), or which can be found e.g. in H. G. Brittain (editor), Polymorphism in Pharmaceutical Solids, Vol. 95, Marcel Dekker Inc., New York 1999 (chapter 6: all there mentioned techniques).
Pronounced water uptake levels are observed above 70% RH (crystalline modification A type a) and above 90% RH (crystalline modification A type b), respectively, which results in formation of dihydrate crystalline modification H1 (water uptake levels of approx. 6 wt %) at elevated relative humidity (RH).
Pronounced water uptake levels are observed above 70% RH, which results in formation of crystalline hydrate modification NF5 (water uptake levels of approx. 5-6 wt %) at elevated relative humidity (RH).

[3] = Kinetic solubility determination in water:acetone 30:70 (v:v) after 2 hours (Example 14)
Protocol: (§2) The dispersion was agitated at RT for 2 hours at 450 rpm. After filtration of the dispersion after 2 hours, the filtrate is analysed by HPLC (dilution may be necessary before analysis).

[4] = Competitive slurry conversion of crystalline modifications H1 and NF5 in water (Example 12); format: physicochemical; details: aqueous slurrying at 25° C., in words
Protocol: (§1) A PTFE-coated stirring rod was inserted into the dispersion prior to sealing the vial. The dispersion was agitated in closed vial for 12 days, using a magnetic stirrer, at 25° C. The solid-state residue was filtered, and analyzed by XRD to monitor morphic form after solvent slurrying.

[5] = Competitive slurry conversion of crystalline modifications H1 and NF3 in water (Example 13); format: physicochemical; details: aqueous slurrying at 25° C., in words
Protocol: A PTFE-coated stirring rod was inserted into the dispersion prior to sealing the vial. The dispersion was agitated in closed vial for 5 days, using a magnetic stirrer, at 25° C. The solid-state residue was filtered, and analyzed by XRD to monitor morphic form after solvent slurrying.

physchem = details: organic solvent or mixture, thermodynamic from solid
Protocol: as §2

[6] = Competitive slurry conversion of crystalline modifications A1 and NF5 in water (Example 11); format: physicochemical; details: aqueous slurrying at 25° C., in words
Protocol: as §1

[7] = Solubility determination in water (Example 9); format: physicochemical; details: for pH value: solubility sample in water; for solubility at 1 h / solubility at 2 h: thermodynamic from solid, water, ambient temperature, maximal possible concentration 10 mg/mL
Protocol: The mixture is stirred at 1000 rpm on a magnetic stirring plate at ambient temperature. At the sampling point 100 μL of the respective solution/suspension are transferred to a 500 μL Eppendorff cap and are centrifuged for 5 min at 14000 rpm.

[8] = Stability in aqueous solution, salt compared to free base; format: physicochemical; details: in words, no data shown

With `Cn1cc(-c2ccc(=O)n(Cc3cccc(-c4ncc(OCCN5CCOCC5)cn4)c3)n2)cn1.O=P(O)(O)O` [crystalline modification A1, 6-(1-methyl-1H-pyrazol-4-yl)-2-{3-[5-(2-morpholin-4-yl-ethoxy)-pyrimidin-2-yl]-benzyl}-2H-pyridazin-3-one dihydrogenphosphate anhydrate] the “Relative stability of forms A1 and NF3” value [1] was “more stable form”, the “Relative humidity range with small water uptake levels upon adsorption” value (“Relative humidity range” below) ([2]; type a) was 0-70 % relative humidity (RH) and the “Relative humidity above which pronounced water uptake levels are observed” value ([2]; type a, results in formation of dihydrate H1) was “above 70 % RH”. For the same compound, the “Relative humidity range” value ([2]; type b) was 0-90 % RH, the “Relative humidity above which pronounced water uptake levels are observed” value ([2]; type b, results in formation of dihydrate H1) was “above 90 % RH” and the “Water uptake levels at elevated relative humidity (hydrate formation)” value ([2]; listed as A1) was “approx. 6 wt %”. For the same compound, the “Physical stable form in the humidity range 0% up to (upper limit)” value ([2]; varying relative humidity conditions) was “at least 70 % RH” and the “Solubility water:acetone (30:70, v:v) after 2 h” value ([3]; kinetic solubility, RT, 2 hours, 450 rpm) was 18200 µg/mL.
In the case of `Cn1cc(-c2ccc(=O)n(Cc3cccc(-c4ncc(OCCN5CCOCC5)cn4)c3)n2)cn1.O.O.O=P(O)(O)O` [crystalline modification H1, 6-(1-methyl-1H-pyrazol-4-yl)-2-{3-[5-(2-morpholin-4-yl-ethoxy)-pyrimidin-2-yl]-benzyl}-2H-pyridazin-3-one dihydrogenphosphate dihydrate], the “Relative stability of forms H1 and NF5” value [4] is reported as “stable form in an aqueous dispersion system”, the “Relative stability of forms H1 and NF3” value [5] is reported as “more stable form in an aqueous dispersion system” and the “Relative humidity above which re-conversion to the hydrate form occurs upon adsorption” value [2] is reported as over 70 % RH. For the same compound, the “Relative humidity below which hydrate water is lost” value [2] was < 40 % relative humidity (RH).
For `Cn1cc(-c2ccc(=O)n(Cc3cccc(-c4ncc(OCCN5CCOCC5)cn4)c3)n2)cn1.O=P(O)(O)O` [crystalline modification NF3, 6-(1-methyl-1H-pyrazol-4-yl)-2-{3-[5-(2-morpholin-4-yl-ethoxy)-pyrimidin-2-yl]-benzyl}-2H-pyridazin-3-one dihydrogenphosphate], the “Relative humidity range” value [2] was 0-70 % relative humidity (RH), the “Water uptake levels at elevated relative humidity (hydrate formation)” value ([2]; listed as NF3) was 5-6 wt % and the “Relative humidity above which pronounced water uptake levels are observed” value ([2]; results in formation of hydrate NF5) was “above 70 % RH”. For the same compound, the solubility at 2 h (physchem) was 10600 µg/mL and the “Solubility level after 2 hours compared to form A1” value ([3]; water:acetone (30:70, v:v), in words) was “lower solubility level”.
For `Cn1cc(-c2ccc(=O)n(Cc3cccc(-c4ncc(OCCN5CCOCC5)cn4)c3)n2)cn1.O.O=P(O)(O)O` [crystalline modification NF5, 6-(1-methyl-1H-pyrazol-4-yl)-2-{3-[5-(2-morpholin-4-yl-ethoxy)-pyrimidin-2-yl]-benzyl}-2H-pyridazin-3-one dihydrogenphosphate hydrate], the “Relative stability of forms A1 and NF5” value [6] was “more stable form in an aqueous dispersion system”, the “Relative humidity above which re-conversion to the hydrate form occurs upon adsorption” value [2] was over 70 % RH and the “Relative humidity below which hydrate water is lost” value [2] was < 40 % relative humidity (RH).
In the case of `Cn1cc(-c2ccc(=O)n(Cc3cccc(-c4ncc(OCCN5CCOCC5)cn4)c3)n2)cn1.O=P(O)(O)O` [dihydrogenphosphate, 6-(1-methyl-1H-pyrazol-4-yl)-2-{3-[5-(2-morpholin-4-yl-ethoxy)-pyrimidin-2-yl]-benzyl}-2H-pyridazin-3-one dihydrogenphosphate], the “Solubility in aqueous solutions compared to free base” value ([7]; in words) is reported as “significantly higher solubility”, the pH value ([7]; sample point 1 h) is reported as 3.91 and the pH value ([7]; sample point 2 h) is reported as 3.97. For the same compound, the solubility at 1 h ([7]; sample point 1 h) was 9860 µg/mL, the solubility at 2 h ([7]; sample point 2 h) was over 10000 µg/mL and the “Stability in aqueous solution compared to free base” value [8] was “significantly superior stability in aqueous solution”.
With `Cn1cc(-c2ccc(=O)n(Cc3cccc(-c4ncc(OCCN5CCOCC5)cn4)c3)n2)cn1` [free base, 6-(1-methyl-1H-pyrazol-4-yl)-2-{3-[5-(2-morpholin-4-yl-ethoxy)-pyrimidin-2-yl]-benzyl}-2H-pyridazin-3-one] the solubility at 1 h ([7]; sample point 1 h) was 167 µg/mL (≈ 353 µM) and the solubility at 2 h ([7]; sample point 2 h) was 156 µg/mL (≈ 329 µM).
